From patent US12568972B2, “Pyridazinol compounds and derivatives, preparation methods, herbicidal compositions and applications thereof” (Qingdao Kingagroot Chemical Compound Co., Ltd., priority 2018, dated 2026)

How the values were obtained:
Assay in all cases: Post-emergence test, weed control effect
Format in all cases: in vivo
Settings in all cases: after 3 weeks
Veronica polita = system: Veronica polita
Method in brief: (§1)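 Weeds grown from seed in soil-filled pots in a greenhouse were sprayed at the 2-3 leaf stage, 2-3 weeks after sowing, with compound in acetone/Tween-80/water plus 80% vegetable oil methyl ester synergist at 1500 g/ha. Fresh-weight inhibition was scored on a 0-10 scale after 3 weeks.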

Amaranthus retroflexus = system: Amaranthus retroflexus
Method in brief: as §1

Chenopodiaceae = system: Chenopodiaceae
Method in brief: as §1

Rorippa indica = system: Rorippa indica
Method in brief: as §1

CCCCCCCCOC(=O)Oc1cc(C(F)(F)F)nnc1-c1ccc(C(F)(F)F)cc1 [Compound 1-40]
10: weed control effect, Veronica polita (activity level) (Veronica polita; Dose 3000 g/ha) | weed control effect, Amaranthus retroflexus (activity level) (Amaranthus retroflexus; Dose 3000 g/ha) | weed control effect, Chenopodiaceae (activity level) (Chenopodiaceae; Dose 3000 g/ha) | weed control effect, Rorippa indica (activity level) (Rorippa indica; Dose 3000 g/ha)

N#Cc1ccc(-c2nnc(C(F)(F)F)cc2O)s1 [Compound 873]
10: weed control effect (activity level), Veronica polita (Veronica polita; Dose 3000 g/ha) | weed control effect (activity level), Amaranthus retroflexus (Amaranthus retroflexus; Dose 3000 g/ha) | weed control effect (activity level), Chenopodiaceae (Chenopodiaceae; Dose 3000 g/ha) | weed control effect (activity level), Rorippa indica (Rorippa indica; Dose 3000 g/ha)

CC(=O)n1nccc1-c1nnc(C(F)(F)F)cc1O [Compound 834]
10: weed control effect (activity level), Veronica polita (Veronica polita; Dose 3000 g/ha) | weed control effect (activity level), Amaranthus retroflexus (Amaranthus retroflexus; Dose 3000 g/ha) | weed control effect (activity level), Chenopodiaceae (Chenopodiaceae; Dose 3000 g/ha) | weed control effect (activity level), Rorippa indica (Rorippa indica; Dose 3000 g/ha)

Cc1ccc(-c2nnc(C(F)(F)F)cc2OC(=O)c2ccccc2C)cc1 [Compound 1-80]
10: weed control effect, Veronica polita (activity level) (Veronica polita; Dose 3000 g/ha) | weed control effect, Amaranthus retroflexus (activity level) (Amaranthus retroflexus; Dose 3000 g/ha) | weed control effect, Chenopodiaceae (activity level) (Chenopodiaceae; Dose 3000 g/ha) | weed control effect, Rorippa indica (activity level) (Rorippa indica; Dose 3000 g/ha)

Oc1cc(C(F)(F)F)nnc1-c1cc(Cl)ccc1Cl [Compound 37]
10: weed control effect (activity level), Veronica polita (Veronica polita; dose 1000 g/ha) | weed control effect (activity level), Amaranthus retroflexus (Amaranthus retroflexus; dose 1000 g/ha) | weed control effect (activity level), Chenopodiaceae (Chenopodiaceae; dose 1000 g/ha) | weed control effect (activity level), Rorippa indica (Rorippa indica; dose 1000 g/ha)

Oc1cc(C(F)(F)F)nnc1-c1ccc(F)nc1Cl [Compound 1003]
10: weed control effect (activity level), Veronica polita (Veronica polita; Dose 3000 g/ha) | weed control effect (activity level), Amaranthus retroflexus (Amaranthus retroflexus; Dose 3000 g/ha) | weed control effect (activity level), Chenopodiaceae (Chenopodiaceae; Dose 3000 g/ha) | weed control effect (activity level), Rorippa indica (Rorippa indica; Dose 3000 g/ha)

Oc1cc(C(F)(F)F)nnc1-c1ccc(Cl)cc1Cl [Compound 39]
10: weed control effect (activity level), Veronica polita (Veronica polita; dose 1000 g/ha) | weed control effect (activity level), Amaranthus retroflexus (Amaranthus retroflexus; dose 1000 g/ha) | weed control effect (activity level), Chenopodiaceae (Chenopodiaceae; dose 1000 g/ha) | weed control effect (activity level), Rorippa indica (Rorippa indica; dose 1000 g/ha)

O=C(Oc1cc(C(F)(F)F)nnc1-c1ccc(F)c(F)c1)c1ccc(Cl)nc1 [Compound 1-110]
10: weed control effect, Veronica polita (activity level) (Veronica polita; Dose 3000 g/ha) | weed control effect, Amaranthus retroflexus (activity level) (Amaranthus retroflexus; Dose 3000 g/ha) | weed control effect, Chenopodiaceae (activity level) (Chenopodiaceae; Dose 3000 g/ha) | weed control effect, Rorippa indica (activity level) (Rorippa indica; Dose 3000 g/ha)

Oc1cc(C(F)(F)F)nnc1-c1cc(F)c(F)c(F)c1 [Compound 53]
10: weed control effect (activity level), Veronica polita (Veronica polita; dose 1000 g/ha) | weed control effect (activity level), Amaranthus retroflexus (Amaranthus retroflexus; dose 1000 g/ha) | weed control effect (activity level), Chenopodiaceae (Chenopodiaceae; dose 1000 g/ha) | weed control effect (activity level), Rorippa indica (Rorippa indica; dose 1000 g/ha)

Cc1ccc(S(=O)(=O)Oc2cc(C(F)(F)F)nnc2-c2ccc(F)c(F)c2)cc1 [Compound 1-127]
10: weed control effect, Veronica polita (activity level) (Veronica polita; Dose 3000 g/ha) | weed control effect, Amaranthus retroflexus (activity level) (Amaranthus retroflexus; Dose 3000 g/ha) | weed control effect, Chenopodiaceae (activity level) (Chenopodiaceae; Dose 3000 g/ha) | weed control effect, Rorippa indica (activity level) (Rorippa indica; Dose 3000 g/ha)

CCOc1ccc(F)c(-c2nnc(C(F)(F)F)cc2O)c1F [Compound 81]
10: weed control effect (activity level), Veronica polita (Veronica polita; dose 1000 g/ha) | weed control effect (activity level), Amaranthus retroflexus (Amaranthus retroflexus; dose 1000 g/ha) | weed control effect (activity level), Chenopodiaceae (Chenopodiaceae; dose 1000 g/ha) | weed control effect (activity level), Rorippa indica (Rorippa indica; dose 1000 g/ha)

Cc1nn(C)c(-c2nnc(C(F)(F)F)cc2O)c1F [Compound 803]
10: weed control effect (activity level), Veronica polita (Veronica polita; Dose 3000 g/ha) | weed control effect (activity level), Amaranthus retroflexus (Amaranthus retroflexus; Dose 3000 g/ha) | weed control effect (activity level), Chenopodiaceae (Chenopodiaceae; Dose 3000 g/ha) | weed control effect (activity level), Rorippa indica (Rorippa indica; Dose 3000 g/ha)

Cn1cccc1C(=O)Oc1cc(C(F)(F)F)nnc1-c1ccccc1 [Compound 1-105]
10: weed control effect, Veronica polita (activity level) (Veronica polita; Dose 3000 g/ha) | weed control effect, Amaranthus retroflexus (activity level) (Amaranthus retroflexus; Dose 3000 g/ha) | weed control effect, Chenopodiaceae (activity level) (Chenopodiaceae; Dose 3000 g/ha) | weed control effect, Rorippa indica (activity level) (Rorippa indica; Dose 3000 g/ha)

COc1ccc(Cl)c(-c2nnc(C(F)(F)F)cc2O)c1 [Compound 70]
10: weed control effect (activity level), Veronica polita (Veronica polita; dose 1000 g/ha) | weed control effect (activity level), Amaranthus retroflexus (Amaranthus retroflexus; dose 1000 g/ha) | weed control effect (activity level), Chenopodiaceae (Chenopodiaceae; dose 1000 g/ha) | weed control effect (activity level), Rorippa indica (Rorippa indica; dose 1000 g/ha)

Cn1ncc(OCc2ccccc2)c1-c1nnc(C(F)(F)F)cc1O [Compound 813]
10: weed control effect (activity level), Veronica polita (Veronica polita; Dose 3000 g/ha) | weed control effect (activity level), Amaranthus retroflexus (Amaranthus retroflexus; Dose 3000 g/ha) | weed control effect (activity level), Chenopodiaceae (Chenopodiaceae; Dose 3000 g/ha) | weed control effect (activity level), Rorippa indica (Rorippa indica; Dose 3000 g/ha)
